According to PubChem BioAssay (NCI):
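Cells were grown in 96-well plates and exposed to each compound for 48 hours at five concentrations; endpoints were interpolated linearly between bracketing concentrations, or set to the highest concentration if not reached. At the GI50, growth is halved. The concentration for full growth arrest is given as TGI.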

Assays:
Assay in all cases: NCI anticancer screen, dose series, 48 h
A498 renal = tested on: A498 renal
HCC-2998 colon = tested on: HCC-2998 colon
LOX IMVI melanoma = tested on: LOX IMVI melanoma
SK-MEL-28 melanoma = tested on: SK-MEL-28 melanoma
SK-MEL-5 melanoma = tested on: SK-MEL-5 melanoma
SN12C renal = tested on: SN12C renal
UACC-257 melanoma = tested on: UACC-257 melanoma
UO-31 renal = tested on: UO-31 renal
NCI-H460 lung = tested on: NCI-H460 lung
RXF 393 renal = tested on: RXF 393 renal

SMILES | GI50 (A498 renal) [µM] | TGI (A498 renal) [µM] | GI50 (HCC-2998 colon) [µM] | TGI (HCC-2998 colon) [µM] | GI50 (LOX IMVI melanoma) [nM] | TGI (LOX IMVI melanoma) [µM] | GI50 (SK-MEL-28 melanoma) [µM] | TGI (SK-MEL-28 melanoma) [µM] | GI50 (SK-MEL-5 melanoma) [µM] | TGI (SK-MEL-5 melanoma) [µM] | GI50 (SN12C renal) [µM] | TGI (SN12C renal) [µM] | GI50 (UACC-257 melanoma) [µM] | TGI (UACC-257 melanoma) [µM] | GI50 (UO-31 renal) [µM] | TGI (UO-31 renal) [µM] | TGI (NCI-H460 lung) [µM] | TGI (RXF 393 renal) [µM] | GI50 (NCI-H460 lung) [µM] | GI50 (RXF 393 renal) [µM]
[Cu+2].[Cu+2].[O-]c1ccccc1C=Nc1ccccc1[O-].[O-]c1ccccc1C=Nc1ccccc1[O-] | 14.4 | 28.1 | 10.3 | 22.4 | 4120 | 17.5 | 13.3 | 26 | 3.3 | 12 | 13.7 | 27.3 | 10.4 | 22.3 | 12.6 | 25.2 | – | – | – | –
CCCCN(CC)C(=O)C(=O)C1C(=O)Nc2ccccc2S1=O (stereo not given) | – | > 100 | – | > 100 | – | > 100 | – | > 100 | – | > 100 | – | > 100 | – | > 100 | – | > 100 | > 100 | > 100 | – | –
CC1=CC[C@@H]2[C@@H](CC[C@@]2(C)O)C(C)(C)[C@H]1CC[C@@H]1[C@@]2(C)CCC(=O)C(C)(C)O[C@@H]2CC[C@]1(C)O | – | 73 | – | 40.9 | – | 33.3 | – | > 100 | – | 39.1 | – | 42.3 | – | > 100 | – | 49 | 35.8 | – | – | –
COc1nc(OC)c2c(=O)oc(-c3ccccc3)cc2n1 | – | – | – | > 100 | – | – | – | > 100 | – | > 100 | – | > 100 | – | > 100 | – | > 100 | – | > 100 | – | –
COc1cc2c(cc1OC)C13CCN4CC5=CCOC(CC(=O)O)C(C5CC41)C3N2 (stereo not given) | – | > 100 | – | – | – | > 100 | – | > 100 | – | > 100 | – | > 100 | – | > 100 | – | > 100 | > 100 | – | – | –
COC1=CC(c2ccc[nH]2)=N/C1=C\c1[nH]c(C)c(C(=O)CCC(=O)Oc2ccc3c(c2)CCC2C3CC[C@]3(C)C(=O)CC[C@@H]23)c1C (stereo not given in full) | 7.94 | 57.4 | 16.8 | > 96.1 | 998 | 3.35 | > 70.9 | > 100 | 3.48 | 19.6 | 5.23 | > 100 | 97.6 | > 100 | 3.95 | 30 | > 100 | > 87.4 | 3.07 | 11.7
CCc1nc2c(O)ccc(O)c2nc1C | – | 35.2 | – | > 54.9 | – | 29.9 | – | 34.4 | – | 31.2 | – | 29.6 | – | 31.4 | – | 33.5 | 36.1 | 25.5 | – | –
C=C1C(=O)O[C@@H]2C[C@]3(C)[C@@H](C[C@H]12)[C@](C)(O)CC[C@@H]3O | – | – | – | > 100 | – | > 100 | – | > 100 | – | > 100 | – | > 100 | – | – | – | > 100 | 68.9 | – | – | –
Cc1c(/C=C2\CC/C(=C\c3[nH]c(C(=O)OC(C)(C)C)c(C)c3C)C2=O)[nH]c(C(=O)OC(C)(C)C)c1C | – | > 100 | – | > 100 | – | > 100 | – | – | – | > 100 | – | > 100 | – | > 100 | – | > 100 | > 100 | > 100 | – | –
COC(=O)OCC1OC(N2C(=O)NC(=O)C(I)C2N=[N+]=[N-])CC1OC(=O)OC (stereo not given) | – | – | – | > 100 | – | > 100 | – | > 100 | – | > 100 | – | > 100 | – | > 100 | – | > 100 | > 100 | > 100 | – | –
